Consider one molecule from US5652359A, “Oligonucleotides containing n-methyl thiolated bases having antiviral activity” (Epoch Pharmaceuticals, Inc., priority 1993, dated 1997).

In this assay the test system is HIV-1 (strain LAY-1). The assay can be described thus: Inhibition of HIV virus replication in human peripheral blood mononuclear (PBM) cells. The class given is cell-based. To be noted: Human immunodeficiency virus 1, PBMC, 144 h, supernatant RT activity six days after infection, read-out: IC50, 50% inhibition of replication of HIV. From the text:
The group R' in Table 1 represents the cholesterol "tail" of Compound 7 which is connected to the 3'-terminal phosphate through a "linking group" derived from 4-hydroxy-2-hydroxymethylpyrrolidine and carbonyl connecting group. […] The IC50 numbers in Table 1 refer to the concentration of the compound which gives 50% inhibition of replication of HIV in a cell culture of human peripheral blood mononuclear (PBM) cells.
Cell Culture. Human PBM cells from healthy HIV-1 seronegative and hepatitis B virus seronegative donors were isolated by Ficoll-Hypaque discontinuous gradient centrifugation at 1,000× g for 30 minutes, washed twice in phosphate-buffered saline (pH 7.2; PBS), and pelleted at 300× g for 10 min. […]
Viruses. […] The virus was propagated in human PBM cells using RPMI 1640 medium, as described previously (McDougal, J. S., Cort, S. P., Kennedy, M. S. Cabridilla, C. D., Feorino, P. M., Francis, D. P., Hicks, D., Kalyanaramen, V. S. and Martin, L. S. (1985): Immunoassay for the detection and quantitation of infectious human retrovirus, lymphadenopathy-associated virus (LAV). J. Immun. Meth. 76:171-183) without PHA or fungizone and supplemented with 26 units/ml of recombinant interleukin-2 (Cetus Corporation, Emeryville, Calif.), 7 μg/ml DEAE-dextran (Pharmacia, Uppsala, Sweden), and 370 U/ml anti-human leukocyte (alpha) interferon (ICN, Lisle, Ill.). […]

`CO[C@@H]1[C@H](O)[C@@H](CO)O[C@H]1n1cnc2c(=S)n(C)cnc21` [Nucleoside, 9(2'-O-methyl-1-β-D-ribofuranosyl)-1-methyl-6-thiopurine]: the IC50 is roughly 100 µM.

Usually IC50 stands for the concentration at which inhibition is half-maximal.
